Here are results for seven molecules from ChEMBL document CHEMBL4364277, “Medicinal prospects of antioxidants: A review” (Eur J Med Chem, 2019).

The subject of series [1] is Rattus norvegicus. The series is described as follows: Anti-inflammatory activity in rat assessed as inhibition of formalin-induced paw edema at 20 mg/kg, po pretreated for 1 hr followed by formalin addition measured up to 6 hrs relative to control. It counts as functional.
Series [2] in a line: Anti glycation activity assessed as inhibition of BSA glycation after 7 days in presence of glucose by spectrofluorimetry assay. It counts as functional.
Series [3] is described as follows: Antioxidant activity assessed as DPPH radical scavenging activity after 30 mins. The format is functional. On the technique in general: DPPH is a stable violet radical that fades when it is reduced.
A short description of series [4]: Hemolytic activity in human RBC relative to control. The format is cell-based, Erythrocyte. Particulars: red blood cells (erythrocytes), read-out: Activity.
In another series the test system is MCF7. The series is described as follows: Cytotoxicity against human MCF7 cells after 48 hrs by MTT assay. It counts as functional, cell-based. To be noted: MCF7, 48 h.
Series [5] has as its system Rattus norvegicus. The series is described as follows: Anti-inflammatory activity in rat assessed as inhibition of formalin-induced paw edema administered as po dose pretreated for 1 hr followed by formalin addition measured up to 6 hrs relative to control. The format is functional.

Turning to `COc1ccc2c(c1)c(CC(=O)O)c(C)n2C(=O)c1ccc(Cl)cc1` [INDOMETHACIN], the inhibition in vivo at 20 mg/kg in the series with Rattus norvegicus [1] came to 54.5%.
Turning to `Oc1ccc(-c2nc3ncc(Cl)cc3[nH]2)c(O)c1`, the results for the IC50 in series [2] and in series [3] were 240 µM and 58.1 µM, respectively.
For `Oc1ccc(O)c(-c2nc3ncc(Cl)cc3[nH]2)c1` the same measures were 240 µM and 72.5 µM.
As for `O=C(Cc1cc(=O)oc2cc(O)ccc12)Nc1nc2ccccc2o1`, the hemolysis in series [4] is 92.5%.
Consider `Cc1nnc(N2C(=O)CSC2c2ccccc2[N+](=O)[O-])s1` (centres undefined), for which, in the series with MCF7, the midpoint of inhibition, the IC50, lay at 46.3 µM.
As to `O=C(Nc1nc2ccccc2[nH]1)c1cc2ccccc2oc1=O`, in the series on Rattus norvegicus [5], the “inhibition (INH)” value was determined as 42.85%.
Still for that read-out and setting: the figure for `O=c1oc2ccc(Cl)cc2cc1-c1nc2ccccc2[nH]1` is 46.75%.

Usually inhibition in vivo stands for the relative decrease from the control value, in per cent. The IC50 is the concentration needed to halve the response being measured.
